Data: patent US5407918A, “16-membered macrolide derivatives and process for producing the same” (Meiji Seika Kaisha, Ltd., priority 1992, dated 1995)
≈ marks a conversion by molar mass, not a printed value. Read-outs that look alike come from different tables or passages of the source.

How the values were obtained:
[1] = system: B. catarrhalis W-0500; experiment: MIC, agar plate dilution method; format: cell-based; details: Moraxella catarrhalis, W0500, 37° C., 20 hours, read-out: Antimicrobial activity (MIC)
Description: (§1) Antimicrobial activities of the compounds of the present invention were determined by measuring minimum inhibitory concentration (MIC). Minimum inhibitory concentration was determined by the agar plate dilution method in the following manner.
(§2) Test strains were subjected to seed culture using Sensitivity test broth (STB, Nissui Pharmaceutical) except that the strains belonging to the genus Streptococcus, Branhamella and Haemophilus were cultured on blood agar plate. A 5 μl portion of cell suspension of the test strains having about 10^6 CFU/ml was inoculated into Sensitivity disk agar (SDA, Nissui Pharmaceutical) supplemented with 5% horse blood and incubated at 37° C. for 20 hours. Then, MIC was measured. For comparison, MDM and leucomycin A7 (LM-A7) was also tested.

[2] = system: B. catarrhalis W-0506; experiment: MIC, agar plate dilution method; format: cell-based; details: Moraxella catarrhalis, W0506, 37° C., 20 hours, read-out: Antimicrobial activity (MIC)
Description: as §1, §2

[3] = system: E. coli NIHJ JC-2; experiment: MIC, agar plate dilution method; format: cell-based; details: Escherichia coli, NIHJJC2; E. coli NIHJ JC-2; 37° C., 20 hours; read-out: Antimicrobial activity (MIC)
Description: as §1, §2

[4] = system: E. faecalis W-73; experiment: MIC, agar plate dilution method; format: cell-based; details: Enterococcus faecalis, W73; E. faecalis W-73; 37° C., 20 hours; read-out: Antimicrobial activity (MIC)
Description: as §1, §2

[5] = system: H. influenzae 9334; experiment: MIC, agar plate dilution method; format: cell-based; details: Haemophilus influenzae; H. influenzae 9334; 37° C., 20 hours; read-out: Antimicrobial activity (MIC)
Description: as §1, §2

[6] = system: H. influenzae Type b; experiment: MIC, agar plate dilution method; format: cell-based; details: Haemophilus influenzae, read-out: Antimicrobial activity (MIC)
Description: as §1, §2

[7] = system: K. pneumoniae PC1602; experiment: MIC, agar plate dilution method; format: cell-based; details: Klebsiella pneumoniae, 37° C., 20 hours, read-out: Antimicrobial activity (MIC)
Description: as §1, §2

[8] = system: M. luteus ATCC9341; experiment: MIC, agar plate dilution method; format: cell-based; details: Micrococcus luteus; M. luteus ATCC9341; 37° C., 20 hours; read-out: Antimicrobial activity (MIC)
Description: as §1, §2

[9] = system: S. Pneumoniae Type 1; experiment: MIC, agar plate dilution method; format: cell-based; details: Streptococcus pneumoniae; S. Pneumoniae Type 1; 37° C., 20 hours; read-out: Antimicrobial activity (MIC)
Description: as §1, §2

[10] = system: S. Pyogenes Cook; experiment: MIC, agar plate dilution method; format: cell-based; details: Streptococcus pyogenes, 37° C., 20 hours, read-out: Antimicrobial activity (MIC)
Description: as §1, §2

[11] = system: S. aureus 209P JC-1; experiment: MIC, agar plate dilution method; format: cell-based; details: Staphylococcus aureus; S. aureus 209P JC-1; 37° C., 20 hours; read-out: Antimicrobial activity (MIC)
Description: as §1, §2

[12] = system: S. aureus M126; experiment: MIC, agar plate dilution method; format: cell-based; details: Staphylococcus aureus; S. aureus M126; 37° C., 20 hours; read-out: Antimicrobial activity (MIC)
Description: as §1, §2

[13] = system: S. aureus M133; experiment: MIC, agar plate dilution method; format: cell-based; details: Staphylococcus aureus, 37° C., 20 hours, read-out: Antimicrobial activity (MIC)
Description: as §1, §2

[14] = system: S. aureus MS15009/pMS98; experiment: MIC, agar plate dilution method; format: cell-based; details: Staphylococcus aureus, MS15009/PMS98, 20 h, read-out: Antimicrobial activity (MIC)
Description: as §1, §2

[15] = system: S. aureus MS15009/pMS99; experiment: MIC, agar plate dilution method; format: cell-based; details: Staphylococcus aureus, MS15009/PMS99, 20 h, read-out: Antimicrobial activity (MIC)
Description: as §1, §2

[16] = system: S. aureus MS15026; experiment: MIC, agar plate dilution method; format: cell-based; details: Staphylococcus aureus, 37° C., 20 hours, read-out: Antimicrobial activity (MIC)
Description: as §1, §2

[17] = system: S. aureus MS15027; experiment: MIC, agar plate dilution method; format: cell-based; details: Staphylococcus aureus, 37° C., 20 hours, read-out: Antimicrobial activity (MIC)
Description: as §1, §2

[18] = system: S. epidermidis ATCC14990; experiment: MIC, agar plate dilution method; format: cell-based; details: Staphylococcus epidermidis, 37° C., 20 hours, read-out: Antimicrobial activity (MIC)
Description: as §1, §2

[19] = system: S. pneumoniae IP692; experiment: MIC, agar plate dilution method; format: cell-based; details: Streptococcus pneumoniae; S. pneumoniae IP692; 37° C., 20 hours; read-out: Antimicrobial activity (MIC)
Description: as §1, §2

[20] = system: Gram-positive bacteria; experiment: antimicrobial activity in vitro (summary in words); format: cell-based; details: from Tables 2 and 3
Description: as §1, §2

[21] = system: test strains; experiment: antimicrobial activity in vitro, comparison in words; format: cell-based; details: data are not shown
Description: as §1, §2

[22] = concentration in serum after oral administration to mice, bioassay; format: in vivo, mice (Jcl:ICR)
Description: The compound (3) was mixed with a 0.2% solution of carboxymethylcellulose to give a concentration of 4 mg/ml and a 1 ml portion of the resulting emulsion was orally administered to 4-week-old male Jcl:ICR mice. Blood was collected from armpit of the mice 30, 60, 120, 240 and 360 minutes after the administration of the test compound (n=2). The collected blood was allowed to stand at room temperature for about 2 hours and centrifuged for 20 minutes with a centrifuge (KUBOTA KS-5000P) to obtain serum. To the serum was added an equivalent volume of 50% CH3 CN-50 mM phosphate (1:1 by volume) buffer (pH 7.0). The resulting mixture served as a serum sample. The concentration of the test compound in the serum sample was measured by the following bioassay method.
One hundred […] of the serum sample was poured into a hole made on a test plate containing 40 ml of MRAPJ medium (6 g/l peptone, 3 g/l yeast extract, 1.5 g/l meat extract, 1 g/l glucose and 15 g/l agar, pH 6.5) supplemented with a solution of M. Iuteus ATCC9341 (1%) and incubated at 32° C. for 18 hours and MIC was measured based on the calibration curve. MOM, MDM and RKM were also tested for comparison. […] Thus a long-pending problem of "low concentration in serum" of 16-membered macrolide antibiotics has been solved. […] Thus this compound is considered as a macrolide derivative showing new pharmacokinetics.
Further, a pharmacokinetics test on the compound (12) of the present invention is carried out in the same manner as described above. Namely, 200 mg/kg of the compound (12) is orally administered to mice and the concentration of this compound in the serum is determined by a bioassay method with the use of M. luteus as a test strain. […] The disadvantage of 16-membered ring macrolide antibiotics, which has been pointed out for a long time, has been thus overcome.

SMILES | MIC [1] [µg/mL] | MIC [2] [µg/mL] | MIC [3] [µg/mL] | MIC [4] [µg/mL] | MIC [5] [µg/mL] | MIC [7] [µg/mL] | MIC [8] [µg/mL] | MIC [9] [µg/mL] | MIC [10] [µg/mL] | MIC [11] [µg/mL] | MIC [12] [µg/mL] | MIC [13] [µg/mL] | MIC [14] [µg/mL] | MIC [15] [µg/mL] | MIC [16] [µg/mL] | MIC [17] [µg/mL] | MIC [18] [µg/mL] | MIC [19] [µg/mL] | antimicrobial activity on Gram-positive bacteria [20] | MIC ([6]; 20 h) [µg/mL] | other results
CCO[C@]1(C)C[C@H](O[C@H]2[C@H](N(C)C)[C@@H](O)[C@H](O[C@H]3[C@@H](CC=O)C[C@@H](C)[C@@H](O)/C=C/C=C/C[C@@H](C)OC(=O)C[C@@H](O)[C@@H]3OC)O[C@@H]2C)O[C@@H](C)[C@@H]1OCCC(C)C [(14)] | 0.39 (≈ 0.487 µM) | 0.78 (≈ 0.975 µM) | > 100 | 0.78 (≈ 0.975 µM) | 6.25 (≈ 7.81 µM) | > 100 | 0.05 (≈ 0.0625 µM) | 0.2 (≈ 0.25 µM) | 0.1 (≈ 0.125 µM) | 0.2 (≈ 0.25 µM) | > 100 | 0.78 (≈ 0.975 µM) | 0.39 (≈ 0.487 µM) | > 100 | > 100 | 0.39 (≈ 0.487 µM) | 0.78 (≈ 0.975 µM) | 0.2 (≈ 0.25 µM) | strong antimicrobial activity | – | MIC ([6]; H. influenzae Type b, 37° C., 20 hours): 12.5 µg/mL (≈ 15.6 µM)
CCC(=O)O[C@@H]1CC(=O)O[C@H](C)C/C=C/C=C/[C@H](OC(C)=O)[C@H](C)C[C@H](CC=O)[C@H](O[C@@H]2O[C@H](C)[C@@H](O[C@H]3C[C@@](C)(OC)[C@@H](OCCC(C)C)[C@H](C)O3)[C@H](N(C)C)[C@H]2O)[C@H]1OC [(4)] | – | – | – | – | – | – | – | – | – | – | – | – | – | – | – | – | – | – | – | – | antimicrobial activity compared with compound (3) [21]: almost comparable to that of the compound (3); concentration in the serum (in words) [22]: sustains a high concentration in the serum; maximum concentration in the serum compared with compound (3) [22]: exceeds even that of the compound (3); concentration in the serum 6 hours after the administration, % of the maximum level ([22]; 6 hours): more than 80%; Tmax ([22]; mouse, serum, after the administration, read-out: time of maximum concentration in the serum): ~2 h
CCCO[C@H]1[C@H](C)O[C@@H](O[C@H]2[C@H](N(C)C)[C@@H](O)[C@H](O[C@H]3[C@@H](CC=O)C[C@@H](C)[C@@H](O)/C=C/C=C/C[C@@H](C)OC(=O)C[C@@H](O)[C@@H]3OC)O[C@@H]2C)C[C@@]1(C)OC [(9)] | 1.56 (≈ 2.06 µM) | 3.13 (≈ 4.13 µM) | > 100 | 0.78 (≈ 1.03 µM) | 6.25 (≈ 8.25 µM) | > 100 | 0.05 (≈ 0.066 µM) | 0.2 (≈ 0.264 µM) | 0.1 (≈ 0.132 µM) | 0.2 (≈ 0.264 µM) | > 100 | 0.39 (≈ 0.515 µM) | 0.39 (≈ 0.515 µM) | > 100 | > 100 | 0.39 (≈ 0.515 µM) | 0.39 (≈ 0.515 µM) | 0.2 (≈ 0.264 µM) | strong antimicrobial activity | 12.5 (≈ 16.5 µM) | –
CCCO[C@]1(C)C[C@H](O[C@H]2[C@H](N(C)C)[C@@H](O)[C@H](O[C@H]3[C@@H](CC=O)C[C@@H](C)[C@@H](O)/C=C/C=C/C[C@@H](C)OC(=O)C[C@@H](O)[C@@H]3OC)O[C@@H]2C)O[C@@H](C)[C@@H]1OCCC(C)C [(15)] | 0.78 (≈ 0.958 µM) | 0.78 (≈ 0.958 µM) | > 100 | 0.78 (≈ 0.958 µM) | 6.25 (≈ 7.68 µM) | > 100 | 0.1 (≈ 0.123 µM) | 0.2 (≈ 0.246 µM) | 0.1 (≈ 0.123 µM) | 0.2 (≈ 0.246 µM) | > 100 | 0.78 (≈ 0.958 µM) | 0.39 (≈ 0.479 µM) | > 100 | > 100 | 0.39 (≈ 0.479 µM) | 0.78 (≈ 0.958 µM) | 0.2 (≈ 0.246 µM) | strong antimicrobial activity | 50 (≈ 61.4 µM) | –
